These are literature values, as cited in patent US20250074935A1, “HETERODIMER COMPOSITIONS AND METHODS FOR THE TREATMENT OF OCULAR DISORDERS” (Ripple Therapeutics Corporation, priority 2020, published 2025).

The conditions of this data set: given once a day.

With `CC(C)OC(=O)CCC/C=C\C[C@@H]1[C@@H](CC[C@@H](O)CCc2ccccc2)[C@H](O)C[C@@H]1O` [latanoprost], the “mean IOP lowering” value is reported as “about 35%”.
